One data set relates to SKOV-3 cells. The experiment in a line: MTT assay of endocytosis inhibitors, 40 min. The data set is classed as cell-based. Here is the method:
The cytotoxicity was tested using an MTT assay. […] A combined solution of 5 mg mL^-1 MTT/PBS (10 μL per well) was added to each well of the 96-well plate assay, and the cells were incubated for an additional 4 hours. Formazan extraction was performed with DMSO and quantified colorimetrically using a Synergy H4 Hybrid Microplate reader (Biotek, USA), which was used to measure the OD 490 nm (absorbance value). The following formula was used to calculate the viability of cell growth: viability (%) = (mean of absorbance value of treatment group-blank/mean absorbance value of control-blank) × 100 (MTT was purchased from Sigma-Aldrich).

Data set [1] concerns SKOV-3 ovarian cancer cells. As to conditions: 24 h. Here is the method:
SKOV-3 cells were seeded in a 35 mm petri dish with a glass cover slide and allowed […]

The nature of the next data set: in vitro. As to conditions: mouse, serum, pH 8.2. As to the method:
A 1.5 mL mixture consisting of 30 μL mouse serum, 750 μL of peptides (1 mg mL^–1) and 1470 μL of digestion buffer (pH 8.2, 50 mM Tris, 20 mM CaCl2) was incubated at 37 °C for 16 h. Peptides treated with digestion buffer served as controls. Aliquots of 400 μL were withdrawn from the mixture and quenched with 400 μL of 1% trifluoroacetic acid (TFA) solution at 1 h, 8 h and 16 h. The quenched solution was analysed by reverse-phase high performance liquid chromatography (RP-HPLC). […]
to adhere overnight at 37 °C under 5% CO2. The cell culture medium was then removed and replaced with fresh McCoy’s 5A medium containing HAL-2 (10 μM) or HAL-C (10 μM) for 1 h. After the medium was removed and the cells were washed with PBS (1 mL × 3 times), 1 mL of PBS containing 4 μL staining solution was added for 1 h.
The cells were then washed with PBS (1 mL × 3 times) before imaging. Cell fluorescence images were obtained with a confocal laser scanning microscope. […] for Tubulin-Trakcer Red: excitation: 561 nm, emission collected: 570 -620 nm; Blue channel for DAPI: excitation: 405 nm, emission collected: 425 -475 nm. (Tubulin-Trakcer Red were purchased from Beyotime Biotechnology) […]
SKOV-3 cells were seeded in a 35 mm petri dish with a glass cover slide and allowed to adhere overnight at 37 °C under 5% CO2. […] Cell fluorescence images were obtained with a confocal laser scanning microscope. […]
A 1.5 mL mixture consisting of 30 μL serum, 750 μL of peptides (1 mg/mL) , and 1470 μL of digestion buffer (pH 8.2, 50 mM Tris, 20 mM CaCl 2 ) was incubated at 37 °C for 16 h. […] The quenched solution was analyzed by reverse -phase […]
In vivo antitumor studies: When the tumors reached a mean volume of 50 mm 3 after inoculation of SKOV-3 cells, the mice were randomly separated into three groups (N=3/group): (1) negative control (PBS); (2) HAL-2; (3) HAL-C. […] During therapy, the tumor volumes and body weights were measured every two days. Length and width of tumors were measured individually using a Vernier caliper. Tumor volumes were calculated using the following formula: tumor volume = length × width 2 × 0.5. […]

[2] abbreviates: MTT, 40 min incubation, tested inhibitor concentrations (Fig. S17).

Consider seven compounds from PMC5676250, “Cholesterol-directed nanoparticle assemblies based on single amino acid peptide mutations activate cellular uptake and decrease tumor volume” (Chemical Science, 2017).

The term IC50 denotes the concentration that inhibits the measured activity by half. A high value points to weaker potency. A word on the fraction remaining: it is the share of the starting amount still present when the sample was taken. Lower therefore signals a greater loss.

Like-named read-outs stand apart in the source and are kept apart here. Residues, ends and D or L forms follow the SMILES beside them. No end group written: not given here. *: point of attachment. X1 = CC(C)CCC[C@@H](C)[C@H]1CC[C@H]2[C@@H]3CC=C4C[C@@H](OCC(=O)*)CC[C@]4(C)[C@H]3CC[C@]12C

Regarding `N=C(N)NC(=O)c1nc(Cl)c(N)nc1N` [AM, amiloride], the “decrease of SKOV-3 cell viability” value in the data set with SKOV-3 cells (setting [2]) turned out to be 20%.

In the case of `CN(C)CCCN1c2ccccc2Sc2ccc(Cl)cc21` [CPZ, chlorpromazine], the “decrease of SKOV-3 cell viability” value with SKOV-3 cells (setting [2]) amounted to 38%.

Compound `CC[C@H](C)[C@H](NC(=O)[C@H](Cc1c[nH]cn1)NC(=O)[C@H](CCCCNC(=O)CO[C@H]1CC[C@@]2(C)C(=CC[C@H]3[C@@H]4CC[C@H]([C@H](C)CCCC(C)C)[C@@]4(C)CC[C@@H]32)C1)NC(=O)[C@H](CC(C)C)NC(=O)[C@H](CC(C)C)NC(=O)[C@H](CO)NC(=O)[C@H](CCSC)NC(=O)[C@H](Cc1c[nH]c2ccccc12)NC(=O)[C@H](CCCCN)NC(=O)CN)C(=O)N[C@@H](CC(C)C)C(=O)N[C@@H](CCCCN)C(N)=O` [HAL-B] (H-GKWMSLLK(X1)HILK-NH2) showed an IC50 in data set [1] of 24.6 ± 0.1 µM.

With `CC[C@H](C)[C@H](NC(=O)[C@H](Cc1c[nH]cn1)NC(=O)[C@H](CCCCN)NC(=O)[C@H](CC(C)C)NC(=O)[C@H](CCCCNC(=O)CO[C@H]1CC[C@@]2(C)C(=CC[C@H]3[C@@H]4CC[C@H]([C@H](C)CCCC(C)C)[C@@]4(C)CC[C@@H]32)C1)NC(=O)[C@H](CO)NC(=O)[C@H](CCSC)NC(=O)[C@H](Cc1c[nH]c2ccccc12)NC(=O)[C@H](CCCCN)NC(=O)CN)C(=O)N[C@@H](CC(C)C)C(=O)N[C@@H](CCCCN)C(N)=O` [HAL-C] (H-GKWMSK(X1)LKHILK-NH2), the IC50 in data set [1] worked out at 12.7 ± 0.1 µM. This IC50 lies about 1.9-fold lower than the previous one.

Take `CSCC[C@H](NC(=O)[C@H](Cc1c[nH]c2ccccc12)NC(=O)[C@H](CCCCN)NC(=O)CN)C(=O)N[C@@H](CO)C(=O)N[C@@H](CC(C)C)C(=O)N[C@@H](CC(C)C)C(=O)N[C@@H](CCCCN)C(=O)N[C@@H](Cc1c[nH]cn1)C(=O)N[C@@H](CCCCNC(=O)CO[C@H]1CC[C@@]2(C)C(=CC[C@H]3[C@@H]4CC[C@H]([C@H](C)CCCC(C)C)[C@@]4(C)CC[C@@H]32)C1)C(=O)N[C@@H](CC(C)C)C(=O)N[C@@H](CCCCN)C(N)=O` [HAL-D] (H-GKWMSLLKHK(X1)LK-NH2): half-maximal inhibition in data set [1] (IC50) was put at 16.2 ± 0.1 µM.

In “in vitro”, GKWMSLLKHILK-NH2 [HAL-2] yielded an amount remaining at 1 h of 55.4%, a share remaining at 8 h of 29.4% and a fraction remaining at 16 h of 11.2%. The same compound showed an IC50 in data set [1] of 54.1 ± 0.5 µM.

For the compound methyl-beta cyclodextrin [MBCD], in the data set with SKOV-3 cells, the “decrease of SKOV-3 cell viability” value is listed as “no significant effects”.
